According to patent US9169241B2, “Quinolinyloxyphenylsulfonamides” (Max-Planck-Gesellschaft Zur Forderung der Wissenschaften …, priority 2009, dated 2015):
Where two headings read alike, the source gives them in different places.

Legend:
tumor cell = assay: Matrigel outgrowth assay/branching assay (Table Va); assay type: cell-based
Procedure, shortened: (§1)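 Cells (5000/well) were seeded onto polymerized 3 mg/ml Matrigel with compound at 3.125, 1.56 or 0.78 μM, or DMSO. Imaging by inverted microscopy at 48, 72 and 96 h scored invasive branching. Only concentrations giving total branching inhibition counted as positive.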

MDA-MB231 = assay: Cell vitality assay (ATP assay, CellTiter-Glo); assay type: cell-based; settings: Homo sapiens, MDA-MB-231; MDA-MB231, 72 h; Table IIa; read-out: IC50 ATP-Assay after 72 h MDA-MB231
Procedure, shortened: (§2)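 1000 cells/well incubated 72 h with compound at 12.5 down to 0.195 μM (twofold steps) or DMSO control. Viability measured as cellular ATP by CellTiter-Glo luminescence; IC50 taken as the concentration giving 50% of the DMSO-control ATP level.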

U138 = assay: Cell vitality assay (ATP assay, CellTiter-Glo); assay type: cell-based; settings: U138, 72 h; Table IIa; read-out: IC50 ATP-Assay after 72 h U138
Procedure, shortened: as §2

SF763 = assay: Cell vitality assay (ATP assay, CellTiter-Glo); assay type: cell-based; settings: SF763, 72 h; Table IIa; read-out: IC50 ATP-Assay after 72 h SF763
Procedure, shortened: as §2

U118 = assay: Cell vitality assay (ATP assay, CellTiter-Glo); assay type: cell-based; settings: U118, 72 h; Table IIa; read-out: IC50 ATP-Assay after 72 h U118
Procedure, shortened: as §2

A172 = assay: Cell vitality assay (ATP assay, CellTiter-Glo); assay type: cell-based; settings: Homo sapiens, A 172; A172, 72 h; Table IIa; read-out: IC50 ATP-Assay after 72 h A172
Procedure, shortened: as §2

C8161 = assay: Cell vitality assay (ATP assay, CellTiter-Glo); assay type: cell-based; settings: Homo sapiens; C8161, 72 h; Table IIa; read-out: IC50 ATP-Assay after 72 h C8161
Procedure, shortened: as §2

Hs578T [1] = assay: Cell vitality assay (ATP assay, CellTiter-Glo); assay type: cell-based; settings: Homo sapiens, Hs-578T, 72 h
Procedure, shortened: as §2

SF126 = assay: Cell vitality assay (ATP assay, CellTiter-Glo); assay type: cell-based; settings: Homo sapiens, SF-126; SF126, 72 h; Table IIa; read-out: IC50 ATP-Assay after 72 h SF126
Procedure, shortened: as §2

indicated cell line = assay: Wound healing migration assay (Table IV); assay type: cell-based; settings: compounds at 12.5, 6.25, 3.125 μM, 48 h-72 h
Procedure, shortened: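 Cells seeded at 150000/24 well, grown to monolayer overnight, scratched with a pipette tip, then treated with compound at 12.5, 6.25 or 3.125 μM versus DMSO. Stopped by crystal violet fixation at 48-72 h once control wounds closed; IC50 taken as 50% wound size between t0 and t48 or t72.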

Hs578T [2] = assay: Matrigel outgrowth assay/branching assay; assay type: cell-based; settings: Homo sapiens, Hs-578T; HS578T cell line; Table Ib; read-out: Total branching inhibition in Matrigel HS578T
Procedure, shortened: as §1

[3] = Homo sapiens, C8161 cells, read-out: Total branching inhibition in Matrigel C8161
[4] = Homo sapiens, Hs-578T, Hs578T cells, read-out: Total branching inhibition in Matrigel Hs578T
[5] = U118 cells, read-out: Total branching inhibition in Matrigel U118
[6] = U138 cells, read-out: Total branching inhibition in Matrigel U138
[7] = HS578T cell line, Table Ib, read-out: IC50 ATP-Assay HS578T after 72 h
[8] = Hs578T, Table IIa, read-out: IC50 ATP-Assay after 72 h Hs578T
[9] = Homo sapiens, A 172, A172 cells, read-out: IC50 Wound healing Assay A172
[10] = Homo sapiens, SF-126, SF126 cells, read-out: IC50 Wound healing Assay SF126
[11] = Homo sapiens, C8161 cells, read-out: IC50 Wound healing Assay C8161
[12] = SF763 cells, read-out: IC50 Wound healing Assay SF763
[13] = U118 cells, read-out: IC50 Wound healing Assay U118

| Compound | IC50 (tumor cell; [3]) [µM] | IC50 (tumor cell; [4]) [µM] | IC50 (tumor cell; [5]) [µM] | IC50 (tumor cell; [6]) [µM] | melting point [°C] | IC50 (MDA-MB231) [µM] | IC50 (U138) [µM] | IC50 (SF763) [µM] | IC50 (U118) [µM] | IC50 (A172) [µM] | IC50 (C8161) [µM] | IC50 (Hs578T [1]; [7]) [µM] | IC50 (Hs578T [1]; [8]) [µM] | IC50 (SF126) [µM] | IC50 (indicated cell line; [9]) [µM] | IC50 (indicated cell line; [10]) [µM] | IC50 (indicated cell line; [11]) [µM] | IC50 (indicated cell line; [12]) [µM] | IC50 (indicated cell line; [13]) [µM] | IC50 (Hs578T [2]) [µM] |
| --- | --- | --- | --- | --- | --- | --- | --- | --- | --- | --- | --- | --- | --- | --- | --- | --- | --- | --- | --- | --- |
| COc1cc2c(Oc3ccc(NS(=O)(=O)c4ccccc4Cl)cc3F)ccnc2cc1OCCCN1CCCC(C)C1 (stereo not shown) [Example 38, 2-Chloro-N-(3-fluoro-4-{6-methoxy-7-[3-(3-methyl-piperidin-1-yl)-propoxy]-quinolin-4-yloxy}-phenyl)-benzenesulfonamide] | ≤ 5 | ≤ 5 | ≤ 5 | 5 to 50 | 115 to 118 | ≤ 12.5 | ≤ 12.5 | ≤ 12.5 | ≤ 12.5 | ≤ 12.5 | ≤ 12.5 | 12.5 to 50 | 12.5 to 50 | ≤ 12.5 | ≤ 12.5 | ≤ 12.5 | ≤ 12.5 | 12.5 to 50 | ≤ 12.5 | ≤ 10 |
| COc1cc2c(Oc3ccc(NS(=O)(=O)c4ccccc4C(F)(F)F)cc3Cl)ccnc2cc1OCCCN1CCN(C)CC1 [Example 87, N-(3-Chloro-4-{6-methoxy-7-[3-(4-methyl-piperazin-1-yl)-propoxy]-quinolin-4-yloxy}-phenyl)-2-trifluoromethyl-benzenesulfonamide] | ≤ 5 | ≤ 5 | ≤ 5 | 5 to 50 | 103 to 105 | 12.5 to 50 | ≤ 12.5 | ≤ 12.5 | ≤ 12.5 | ≤ 12.5 | ≤ 12.5 | 12.5 to 50 | 12.5 to 50 | ≤ 12.5 | ≤ 12.5 | ≤ 12.5 | 12.5 to 50 | ≤ 12.5 | ≤ 12.5 | ≤ 10 |
| COc1cc2c(Oc3ccc(NS(=O)(=O)c4ccc(F)cc4F)cc3F)ccnc2cc1OCCCN1CCCC(C)C1 (stereo not shown) [Example 47, 2,4-Difluoro-N-(3-fluoro-4-{6-methoxy-7-[3-(3-methyl-piperidin-1-yl)-propoxy]-quinolin-4-yloxy}-phenyl)-benzenesulfonamide] | ≤ 5 | ≤ 5 | ≤ 5 | 5 to 50 | 118 to 120 | 12.5 to 50 | ≤ 12.5 | ≤ 12.5 | ≤ 12.5 | ≤ 12.5 | 12.5 to 50 | ≤ 12.5 | ≤ 12.5 | ≤ 12.5 | ≤ 12.5 | ≤ 12.5 | ≤ 12.5 | ≤ 12.5 | ≤ 12.5 | ≤ 10 |
| COc1cc2c(Oc3ccc(NS(=O)(=O)c4cccc(Oc5ccccc5)c4)cc3F)ccnc2cc1OCCCN1CCCCC1 [Example 10, N-{3-Fluoro-4-[6-methoxy-7-(3-piperidin-1-yl-propoxy)-quinolin-4-yloxy]-phenyl}-3-phenoxy-benzenesulfonamide] | ≤ 5 | ≤ 5 | ≤ 5 | 5 to 50 | 146 to 147 | ≤ 12.5 | ≤ 12.5 | ≤ 12.5 | ≤ 12.5 | ≤ 12.5 | ≤ 12.5 | 12.5 to 50 | 12.5 to 50 | ≤ 12.5 | ≤ 12.5 | ≤ 12.5 | ≤ 12.5 | ≤ 12.5 | ≤ 12.5 | ≤ 10 |
| COc1cc2c(Oc3ccc(NS(=O)(=O)c4ccccc4[N+](=O)[O-])cc3F)ccnc2cc1OCCCN1CCCCC1 [Example 7, N-{3-Fluoro-4-[6-methoxy-7-(3-piperidin-1-yl-propoxy)-quinolin-4-yloxy]-phenyl}-2-nitro-benzenesulfonamide] | ≤ 5 | 5 to 50 | ≤ 5 | 5 to 50 | 113 to 116 | ≤ 12.5 | ≤ 12.5 | ≤ 12.5 | 12.5 to 50 | 12.5 to 50 | ≤ 12.5 | ≤ 12.5 | ≤ 12.5 | 12.5 to 50 | ≤ 12.5 | ≤ 12.5 | ≤ 12.5 | ≤ 12.5 | ≤ 12.5 | 10 to 25 |
